Square brackets hold non-standard residues; d marks the D form. Peptide text beside a SMILES is read from it. * marks the point of attachment. Sta = CC(C)C[C@H](N)[C@@H](O)CC(=O)O; Isovaleryl = CC(C)CC(=O)*
Columns and labels:
Type in all cases: biochemical
[1] = tested on: exopeptidase (metalloproteinase activity) of Lucilia sericata ES; experiment: Leucine aminopeptide hydrolysis by Lucilia sericata ES
Source text: (§1) In addition to the predominant serine proteinase activity detected in the ES secretions of Lucilia sericata other less predominant activity is present. The presence of an aspartyl and metalloproteinase activity has been detected though no cysteinyl activity is shown. […] This inhibition reflects the presence of an exopeptidase with a metalloproteinase enzymic nature.

[2] = tested on: fibronectin, laminin and collagens I, III, IV and V; experiment: Degradation of ECM/wound components by larval ES secretions
[3] = tested on: trypsin-like serine proteinase (aminobenzamidine elution peak) and flow-through proteinases of Lucilia sericata ES; experiment: Residual proteinase activity of aminobenzamidine agarose column fractions with APMSF
Protocol: The trypsin-like serine proteinase was purified by affinity chromatography of Lucilia sericata ES on aminobenzamidine agarose. The column matrix (1 ml) was equilibrated with 20 ml of 0.025M Tris-HCl buffer pH 8.0 containing 0.5M NaCl. The crude ES (0.5 ml, 70 μg/ml protein) was diluted with an equal volume of buffer before application to the column. Fractions (0.5 ml) were collected throughout the chromatography. After washing with 6.5 times column volume of buffer to remove unbound protein, the free aminobenzamidine ligand (2 ml 400 μM) was used to elicit the elution of bound material. Absorbance readings of the fractions at 280 nm was used to establish the positions of the unbound (flow-through) and bound peaks which were then collected for assay.
Aminobenzamidine agarose binds trypsin-like serine proteinases. Following application of larval enzyme secretions to the column, unbound material passed directly through and was collected as “flow-through” (peak I). The addition of free aminobenzamidine to the column buffer elicited elution of the bound proteinase (peak II). The unbound (flow-through) material contained proteinase activity unaffacted by APMSF (possibly including a a chrymotrypsin-like enzyme), whereas the activity in the aminobenzamidine elution peak was substantially abolished (80%) by APMSF, indicating purification of a trypsin-like serine proteinase activity.

[4] = tested on: Lucilia sericata ES serine proteinase activity; experiment: FITC-casein hydrolysis by Lucilia sericata ES at pH8 in the presence of PMSF/APMSF
Protocol: The activity of Lucilia sericata ES in FITC-casein hydrolysis at pH8 was investigated using different presentations of ES (0.25 μg) as follows:
The proteolytic activity of Lucilia sericata ES was inhibited following pre-incubation with the irreversible serine proteinase inhibitor PMSF. […] PMSF is dissolved in ethanol and the effect of the solvent on the activity of the ES was negligible. In contrast, approximately 50% of residual serine proteinase activity from ES was detected in the cases where the ES had been pre-incubated with the irreversible “trysin-like” specific inhibitor APMSF. Residual activity in the presence of APMSF indicates the presence of a chymotrypsin-like enzyme.

[5] = tested on: trypsin-like serine proteinase activity in Lucilia sericata ES; experiment: Tosyl-Gly-Pro-Arg-AMC hydrolysis by Lucilia sericata ES in the presence of APMSF and PMSF
Protocol: (§2) The activity of Lucilia sericata ES (0.25 μg) against Tosyl-Gly-Pro-Arg-AMC (a) and against Suc-Ala-Ala-Phe-AMC (b) in the presence of APMSF and PMSF was investigated using different presentations of ES as follows:
(a) • A. ES • B. ES pre-incubated with 0.025 mM APMSF • C. ES pre-incubated with 0.05 mM APMSF • D. ES pre-incubated with 1 mM PMSF
(§3) The results for (a) reveal the “trypsin-like” serine proteinase activity present in Lucilia sericata ES. The hydrolysis of Tosyl-Glyc-Pro-Arg-AMC (selective for the serine proteinases thrombin and plasmin) was inhibited by 1 mM PMSF and 0.05 mM APMSF. […] The results provide further evidence of the presence in ES of two different sub-classes of serine proteinase.

[6] = tested on: chymotrypsin-like serine proteinase activity in Lucilia sericata ES; experiment: Suc-Ala-Ala-Phe-AMC hydrolysis by Lucilia sericata ES in the presence of APMSF and PMSF
Protocol: as §2
(b) • E. ES • F. ES pre-incubated with 0.2 mM APMSF • G. ES pre-incubated with 1 mM PMSF
as §3

[7] = Lipase activity of ES secretions; details: pre-incubated with the inhibitor
[8] = tested on: aspartyl activity of Lucilia sericata ES; experiment: Aspartyl proteinase activity of ES by FITC-casein hydrolysis at pH 5.0
Source text: as §1

[9] = ES (0.25 μg) pre-incubated with 0.2 mM inhibitor
[10] = ES (0.25 μg) pre-incubated with 1 mM inhibitor

## c1cnc2c(c1)ccc1cccnc12 [1,10-phenanthroline]
[1]
  inhibition of leucine aminopeptide hydrolysis: inhibited
[2]
  inhibition of the degradation of laminin and fibronectin by larval secretions: not significantly

## N=C(N)c1ccc(CS(=O)(=O)F)cc1 [APMSF, 4-(amidinophenyl) methane sulphonyl fluoride]
[3]; aminobenzamidine elution peak (peak II)
  activity abolished by inhibitor: 80%
[3]; unbound (flow-through) material (peak I)
  effect of inhibitor on proteinase activity: unaffacted
[4]; ES (0.25 μg) pre-incubated with 0.04 mM inhibitor
  activity (%) of ES in FITC-casein hydrolysis: 43.5%
[4]; ES (0.25 μg) pre-incubated with 0.12 mM inhibitor
  activity (%) of ES in FITC-casein hydrolysis: 47%
[4]; [9]
  activity (%) of ES in FITC-casein hydrolysis: 54%
[4]; ES pre-incubated with APMSF, summary over the concentrations
  residual serine proteinase activity from ES: approximately 50%
[5]; ES (0.25 μg) pre-incubated with 0.025 mM inhibitor
  residual activity (%) against Tosyl-Gly-Pro-Arg-AMC: 14.3%
[5]; ES (0.25 μg) pre-incubated with 0.05 mM inhibitor
  residual activity (%) against Tosyl-Gly-Pro-Arg-AMC: 3.6%
[6]; [9]
  residual activity (%) against Suc-Ala-Ala-Phe-AMC: 86.8%
[2]
  inhibition of the degradation of laminin and fibronectin by larval secretions: not significantly

## O=S(=O)(F)Cc1ccccc1 [PMSF, phenyl methanesulphonyl fluoride]
[4]; [9]
  activity (%) of ES in FITC-casein hydrolysis: 13.8%
[4]; ES (0.25 μg) pre-incubated with 0.6 mM inhibitor
  activity (%) of ES in FITC-casein hydrolysis: 18%
[5]; [10]
  residual activity (%) against Tosyl-Gly-Pro-Arg-AMC: 0%
[6]; [10]
  residual activity (%) against Suc-Ala-Ala-Phe-AMC: 1.3%
[2]
  inhibition of the degradation of laminin and fibronectin by larval secretions: inhibited
[7]
  lipase activity of ES secretions pre-incubated with inhibitor: not detected

## CC(C)CC(=O)N[C@H](C(=O)N[C@H](C(=O)N[C@@H](CC(C)C)[C@@H](O)CC(=O)N[C@@H](C)C(=O)N[C@@H](CC(C)C)[C@@H](O)CC(=O)O)C(C)C)C(C)C [pepstatin A] (Isovaleryl-VV[Sta]A[Sta]-OH)
[8]
  inhibition of aspartyl activity: successfully inhibited
